From ChEMBL document CHEMBL5137050, “Hematopoietic Progenitor Kinase 1 in Tumor Immunology: A Medicinal Chemistry Perspective” (J Med Chem, 2022)

Tests used:
[1] = target: T1, Mitogen-activated protein kinase kinase kinase kinase 1 (Homo sapiens, UniProt Q92918); assay: Inhibition of HPK1 (unknown origin) by TR-FRET assay
Target sequence in this assay (Q92918 whole entry): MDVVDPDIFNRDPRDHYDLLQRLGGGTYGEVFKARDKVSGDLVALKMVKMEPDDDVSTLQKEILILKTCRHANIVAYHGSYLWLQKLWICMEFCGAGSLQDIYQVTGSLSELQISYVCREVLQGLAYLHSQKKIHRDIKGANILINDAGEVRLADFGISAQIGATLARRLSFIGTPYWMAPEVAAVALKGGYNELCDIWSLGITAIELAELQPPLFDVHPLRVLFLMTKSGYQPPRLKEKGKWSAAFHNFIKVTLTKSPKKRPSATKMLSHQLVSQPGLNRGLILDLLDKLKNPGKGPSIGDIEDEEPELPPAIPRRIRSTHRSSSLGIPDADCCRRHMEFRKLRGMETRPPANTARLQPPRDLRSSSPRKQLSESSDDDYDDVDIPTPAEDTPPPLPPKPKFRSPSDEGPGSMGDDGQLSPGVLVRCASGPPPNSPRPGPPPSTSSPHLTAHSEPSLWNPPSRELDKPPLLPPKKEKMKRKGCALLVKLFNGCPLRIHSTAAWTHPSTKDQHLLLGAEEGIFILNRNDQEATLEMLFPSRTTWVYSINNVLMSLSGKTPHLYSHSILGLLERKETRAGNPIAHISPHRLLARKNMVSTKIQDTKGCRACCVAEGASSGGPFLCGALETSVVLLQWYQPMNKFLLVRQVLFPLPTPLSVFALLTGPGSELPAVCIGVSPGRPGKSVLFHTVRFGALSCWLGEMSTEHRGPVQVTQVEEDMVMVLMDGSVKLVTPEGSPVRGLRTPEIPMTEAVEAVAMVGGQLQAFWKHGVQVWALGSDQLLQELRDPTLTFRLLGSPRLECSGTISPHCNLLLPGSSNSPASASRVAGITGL

[2] = target: T1, Mitogen-activated protein kinase kinase kinase kinase 1; assay: Inhibition of HPK1 (unknown origin) in presence of ATP
Target sequence in this assay (Q92918 whole entry): as above

[3] = target: T1, Mitogen-activated protein kinase kinase kinase kinase 1; assay: Inhibition of HPK1 (unknown origin) in presence of ATP by TR-FRET assay
Target sequence in this assay (Q92918 whole entry): as above

[4] = target: T1, Mitogen-activated protein kinase kinase kinase kinase 1; assay: Inhibition of HPK1 (unknown origin) by ADP-Glo kinase assay
Target sequence in this assay (Q92918 whole entry): as above

[5] = target: T1, Mitogen-activated protein kinase kinase kinase kinase 1; assay: Inhibition of HPK1 (unknown origin) in presence of ATP by ADP-Glo kinase assay
Target sequence in this assay (Q92918 whole entry): as above

[6] = target: T1, Mitogen-activated protein kinase kinase kinase kinase 1; assay: Inhibition of HPK1 (1 to 346 residues) (unknown origin) assessed as inhibition constant by Lanthascreen binding assay
Target sequence in this assay (Q92918 whole entry): as above

Interleukin-2 = Interleukin-2 (Homo sapiens, UniProt P60568); assay: Inhibition of IL-2 (unknown origin)
Interleukin-2, sequence (P60568 whole entry): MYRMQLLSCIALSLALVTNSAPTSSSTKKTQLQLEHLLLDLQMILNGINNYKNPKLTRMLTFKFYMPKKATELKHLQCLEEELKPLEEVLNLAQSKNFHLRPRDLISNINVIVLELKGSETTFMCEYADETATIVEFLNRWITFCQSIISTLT

[7] = target: T1, Mitogen-activated protein kinase kinase kinase kinase 1; assay: Inhibition of HPK1 (unknown origin) assessed as inhibition constant by Lanthascreen binding assay
[8] = target: T2, Protein cereblon/Mitogen-activated protein kinase kinase kinase kinase 1 (Homo sapiens) (UniProt Q92918+Q96SW2); assay: PROTAC activity at CRBN/HPK1 (unknown origin) assessed as degradation of HPK1 at 10 nM incubated for 12 hrs by cell based assay relative to control
T2 sequence (Q92918 whole entry, looked up): as the sequence (Q92918 whole entry) above
T2 sequence (Q96SW2 whole entry, looked up): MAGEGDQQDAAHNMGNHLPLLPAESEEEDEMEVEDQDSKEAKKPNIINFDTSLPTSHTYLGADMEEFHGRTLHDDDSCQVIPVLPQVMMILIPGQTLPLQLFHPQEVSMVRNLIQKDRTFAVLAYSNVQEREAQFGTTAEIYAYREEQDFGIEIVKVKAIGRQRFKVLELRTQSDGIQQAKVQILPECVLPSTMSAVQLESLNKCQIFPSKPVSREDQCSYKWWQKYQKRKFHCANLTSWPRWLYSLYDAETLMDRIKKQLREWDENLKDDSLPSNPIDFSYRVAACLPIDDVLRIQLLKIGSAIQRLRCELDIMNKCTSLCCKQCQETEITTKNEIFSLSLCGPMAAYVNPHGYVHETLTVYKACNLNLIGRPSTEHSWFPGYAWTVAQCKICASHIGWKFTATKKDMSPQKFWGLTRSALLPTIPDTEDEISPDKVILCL

[9] = target: T2, Protein cereblon/Mitogen-activated protein kinase kinase kinase kinase 1 (Homo sapiens); assay: PROTAC activity at CRBN/HPK1 (unknown origin) assessed as degradation of HPK1 at 100 nM incubated for 12 hrs by cell based assay relative to control
[10] = target: T2, Protein cereblon/Mitogen-activated protein kinase kinase kinase kinase 1 (Homo sapiens); assay: PROTAC activity at CRBN/HPK1 (unknown origin) assessed as maximum degradation of HPK1 by cell based assay relative to control
[11] = target: T2, Protein cereblon/Mitogen-activated protein kinase kinase kinase kinase 1 (Homo sapiens); assay: PROTAC activity at CRBN/HPK1 (unknown origin) assessed as maximum inhibition of SLP76 phosphorylation by cell based assay relative to control
[12] = target: T1, Mitogen-activated protein kinase kinase kinase kinase 1; assay: Inhibition of HPK1(unknown origin) assessed as inhibition of SLP76 phosphorylation by cell based assay
[13] = target: T1, Mitogen-activated protein kinase kinase kinase kinase 1; assay: Binding affinity to HPK1 (unknown origin) assessed as dissociation constant by SPR analysis
[14] = target: T1, Mitogen-activated protein kinase kinase kinase kinase 1; assay: Inhibition of HPK1 (unknown origin) by FRET assay
[15] = target: T1, Mitogen-activated protein kinase kinase kinase kinase 1; assay: Inhibition of full-length HPK1 (unknown origin) assessed as inhibition constant in presence of ATP by HTRF assay
[16] = target: T1, Mitogen-activated protein kinase kinase kinase kinase 1; assay: Inhibition of HPK1 (unknown origin) assessed as inhibition of SLP76 phosphorylation by HTRF assay
[17] = target: T1, Mitogen-activated protein kinase kinase kinase kinase 1; assay: Inhibition of HPK1 (unknown origin) by ELISA
[18] = target: T3, Receptor-type tyrosine-protein kinase FLT3 (Homo sapiens, UniProt P36888); assay: Inhibition of FLT3 (unknown origin) by FRET assay
T3 sequence (P36888 whole entry): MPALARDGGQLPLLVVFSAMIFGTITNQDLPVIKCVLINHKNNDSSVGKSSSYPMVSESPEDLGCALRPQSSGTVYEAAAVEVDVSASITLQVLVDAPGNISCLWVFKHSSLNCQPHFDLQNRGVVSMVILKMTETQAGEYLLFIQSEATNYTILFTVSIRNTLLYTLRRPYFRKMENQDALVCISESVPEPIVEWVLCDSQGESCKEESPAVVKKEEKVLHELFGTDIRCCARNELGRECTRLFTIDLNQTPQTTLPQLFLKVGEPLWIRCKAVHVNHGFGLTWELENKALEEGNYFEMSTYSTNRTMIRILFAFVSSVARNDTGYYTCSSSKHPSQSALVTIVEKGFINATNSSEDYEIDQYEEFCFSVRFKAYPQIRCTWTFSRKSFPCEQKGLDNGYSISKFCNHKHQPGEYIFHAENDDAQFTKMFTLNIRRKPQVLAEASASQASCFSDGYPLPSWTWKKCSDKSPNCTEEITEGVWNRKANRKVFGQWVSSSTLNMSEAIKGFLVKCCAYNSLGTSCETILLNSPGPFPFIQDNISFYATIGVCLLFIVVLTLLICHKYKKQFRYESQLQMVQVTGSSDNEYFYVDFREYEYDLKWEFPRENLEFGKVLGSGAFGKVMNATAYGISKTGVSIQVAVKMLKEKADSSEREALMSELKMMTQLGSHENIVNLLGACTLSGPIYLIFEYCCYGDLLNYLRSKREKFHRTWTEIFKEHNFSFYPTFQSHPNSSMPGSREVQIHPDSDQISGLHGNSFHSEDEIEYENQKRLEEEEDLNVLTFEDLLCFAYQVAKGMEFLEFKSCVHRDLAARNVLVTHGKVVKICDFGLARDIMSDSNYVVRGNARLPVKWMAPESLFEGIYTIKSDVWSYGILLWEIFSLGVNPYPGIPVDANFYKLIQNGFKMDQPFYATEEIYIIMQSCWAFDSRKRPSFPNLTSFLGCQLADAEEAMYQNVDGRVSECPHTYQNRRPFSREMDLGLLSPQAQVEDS

[19] = target: Tyrosine-protein kinase Lck (Homo sapiens, UniProt P06239); assay: Inhibition of LCK (unknown origin)
Tyrosine-protein kinase Lck, sequence (P06239 whole entry): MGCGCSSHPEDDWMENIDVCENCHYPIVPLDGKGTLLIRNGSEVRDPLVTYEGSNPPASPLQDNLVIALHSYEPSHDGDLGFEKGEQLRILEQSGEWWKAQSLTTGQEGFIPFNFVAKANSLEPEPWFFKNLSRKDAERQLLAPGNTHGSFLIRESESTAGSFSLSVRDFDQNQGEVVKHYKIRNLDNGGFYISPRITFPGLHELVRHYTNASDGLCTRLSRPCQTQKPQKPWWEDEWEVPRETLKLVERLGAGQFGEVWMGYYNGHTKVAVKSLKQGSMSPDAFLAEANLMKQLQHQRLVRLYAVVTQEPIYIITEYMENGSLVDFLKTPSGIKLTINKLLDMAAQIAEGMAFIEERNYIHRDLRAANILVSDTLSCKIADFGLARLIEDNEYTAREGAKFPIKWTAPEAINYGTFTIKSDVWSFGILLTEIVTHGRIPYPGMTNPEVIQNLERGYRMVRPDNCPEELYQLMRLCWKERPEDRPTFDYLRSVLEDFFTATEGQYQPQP

[20] = target: T1, Mitogen-activated protein kinase kinase kinase kinase 1; assay: Inhibition of HPK1 (unknown origin) assessed as inhibition of SLP76 phosphorylation at 0.3 to 1 uM relative to control; settings: dose 0.3-1 µM
Target sequence in this assay (Q92918 whole entry, looked up): as the sequence (Q92918 whole entry) above

[21] = Cytotoxicity against HEK293 cells assessed as cell growth inhibition; format: toxicity, cell-based; settings: human
[22] = target: T1, Mitogen-activated protein kinase kinase kinase kinase 1; assay: Inhibition of N-terminal DYKDDDDK-tagged human HPK1 (1 to 346 residues) expressed in baculovirus expression system using SLP76 as substrate incubated for 1 hr in presence of ATP by TR-FRET assay
[23] = target: T1, Mitogen-activated protein kinase kinase kinase kinase 1; assay: Inhibition of HPK1 in human PBMC assessed as inhibition of SLP76 phosphorylation incubated for 1 hr by ELISA; format: cell-based

CN(C)C(=O)c1ccc(-c2c[nH]c3ncc(-c4ccc5c(c4)CN([C@H]4CC[C@](C)(O)CC4)CC5)cc23)cc1
IC50 [1]: 7.3 nM

COc1cc2c(cc1Nc1ncc(C(F)(F)F)c(Nc3ccccc3P(C)(C)=O)n1)CN(C)CC2
IC50 [2]: 5 nM

CNC(=O)c1ccccc1Nc1nc(Nc2cc3c(cc2OC)CCN(C)C3)ncc1Cl
IC50 [2]: 5 nM

Cc1cc(-c2cnc(N)c(OCc3ccnc(C#Cc4cccc(F)c4)c3)n2)cc2c1CCN(C)C2
IC50 [3]: 2.8 nM

C[C@H]1COC(=O)N1c1cc(N)c2nnc(NC(=O)[C@@H]3C[C@H]3c3cnn(C)c3)cc2c1
IC50 [4]: 1.9 nM

COc1cc2c(cc1Nc1ncc(Br)c(Nc3ccccc3P(C)(C)=O)n1)CN(C)CC2
IC50 [2]: ≤ 5 nM

COc1ccc(-c2c[nH]c3ncc(C#N)c(Oc4c(F)cc(NC5=NCC(C)(CO)CO5)cc4F)c23)c(F)c1 (configuration not stated)
IC50 [5]: ≤ 50 nM

COc1cccc(F)c1-c1cc2c(C(=O)Nc3ccc(N4CCN(C)CC4)cc3)n[nH]c2cn1
Ki [6]: ≤ 100 nM

C[C@H]1CC(=O)c2ccc(Nc3cc4c([C@](C)(N)C5CC5)cnc(OC5CC5)c4cn3)cc2C12CC2
IC50 [2]: 0.05 nM
EC50 (Interleukin-2): 9.4 nM

Cc1c(CC#N)ccnc1-c1cc(N)cc(-c2cnc3c(c2Cl)[C@]2(CC[C@](C)(C#N)C2)CN3)c1
Ki [7]: 0.9 nM

Cc1cc2cc(N)c(C(=O)N(C)C)nc2[nH]1
Ki [7]: 1300 nM

COc1cc2c(cc1Nc1ncc(Cl)c(Nc3ccccc3P(C)(C)=O)n1)CN(C)C2
IC50 [2]: 10 nM

CC(C)(O)C#Cc1cccc(COc2cc(-c3cnc(C4CCN(C(=O)CCCCCCCCCOc5cccc6c5C(=O)N(C5CCC(=O)NC5=O)C6=O)CC4)s3)cnc2N)c1 (configuration not stated)
Activity [8]: 15%
Activity [9]: 75%
Emax [10]: 62%
Emax [11]: 81%

CN(C)C(=O)c1ccc(-c2c[nH]c3ncc(-c4ccc5c(c4)CNCC5)cc23)cc1
IC50 [1]: 107 nM

Cn1cc(Nc2ncc(C3=CCC[C@@H](NC(=O)c4ccccc4)C3)nc2C(N)=O)cn1
IC50 [3]: 4 nM
EC50 [12]: 149 nM
Kd [13]: 2.2 nM

CCN(CC)CCNC(=O)c1c[nH]c(/C=C2\C(=O)Nc3ccc(-c4c(F)cccc4OC)cc32)c1
IC50 [14]: < 50 nM

Cc1c(N)cncc1-c1cc2cc(Nc3cc4n(n3)CC(=O)N(C(C)C)CC4)ncc2cc1F
Ki [15]: 0.05 nM

CC(C)n1cnnc1-c1cccc(N2Cc3c(cc(N4CCC[C@H]4C)nc3CN)C2=O)n1
IC50 [16]: 22 nM

COCCN(C)C(=O)c1ccc(-c2c[nH]c3ncc(-c4ccc(N5CCN(C)CC5)cc4)nc23)cc1
IC50 [1]: 8.2 nM

Cc1c(CC#N)ccnc1-c1cccc(-c2cnc3c(c2Cl)C2(CC[C@@](C)(C(N)=O)C2)CN3)c1F (some centres not stated)
Ki [7]: 0.39 nM

CN1CCN(c2ccc3nc(-c4c(N)c5sccc5[nH]c4=O)[nH]c3c2)CC1
IC50 [17]: 50 nM
IC50 [18]: 50 nM
IC50 [19]: 50 nM
inhibition [20]: > 75%

CCc1c(Cl)[nH]c2nc(C(=O)N(C)C)c(N)cc12
Ki [7]: 0.9 nM

COc1ccc(-c2c[nH]c3ncnc(Oc4c(F)cc(NC5=NCC(C)(CO)CO5)cc4F)c23)c(F)c1 (configuration not stated)
IC50 [5]: ≤ 50 nM

COc1cc2c(cc1Nc1ncc(Cl)c(N3CC(CO)c4ccccc43)n1)CN(C)CC2 (configuration not stated)
IC50 [4]: < 100 nM

Cc1cc(CNCCO)cc(F)c1-c1cc2c(-c3cnn(C)c3)n[nH]c2cn1
Ki [6]: ≤ 100 nM

Cc1cc(-c2cnc3[nH]cc(-c4ccc(C(=O)N(C)C[C@H](C)O)cc4)c3n2)cc2c1CCN(CCN1CCOCC1)C2
IC50 [1]: 11 nM
IC50 [21]: 1420 nM

COc1cccc(F)c1-c1cc2c(NCc3ccc(N4CCN(C)CC4)cc3)n[nH]c2cn1
Ki [6]: 500 nM

CNCc1nc(C2(C)CC2)cc2c1CN(c1cccc(N3C(=O)OC[C@@H]3C)n1)C2=O
IC50 [16]: 730 nM

COc1cccc(F)c1-n1cc2c(-c3ccc(N4CCN(C)CC4)cc3)n[nH]c2cc1=O
Ki [6]: ≤ 100 nM

Cc1cc(-c2cnc3[nH]cc(-c4ccc(C(O)C5CCN(C)C5)cc4)c3c2)ccc1N1CCN(C)CC1 (configuration not stated)
IC50 [1]: 4.5 nM

CN1CCN(c2ccc3nc(-c4c(N)c5ccsc5[nH]c4=O)[nH]c3c2)CC1
inhibition [20]: > 75%

Cc1ccncc1-c1cc2cc(NC(=O)C=C3CC(C#N)C3)ncc2c(N)n1 (configuration not stated)
IC50 [4]: < 0.01 nM

C/C(Nc1ccc(N2CCOCC2)cn1)=C1/C(=O)Nc2cnc(-c3cnccc3C)cc21
IC50 [14]: < 50 nM

CC(C)(O)C#Cc1cccc(COc2cc(-c3cnc(C4CCN(C(=O)CCOCCOCCOCCOCCOc5cccc6c5C(=O)N(C5CCC(=O)NC5=O)C6=O)CC4)s3)cnc2N)c1 (configuration not stated)
Activity [8]: 72%
Activity [9]: 68%

COc1cc2c(cc1Nc1ncc(Cl)c(Nc3ccccc3S(=O)(=O)C(C)C)n1)CN(C)CC2
IC50 [2]: ≤ 5 nM

COc1cccc(F)c1-c1ccc2[nH]nc(-c3ccc(N4CCN(C)CC4)cc3)c2n1
Ki [6]: ≤ 100 nM

Cc1cc(-c2cnc3[nH]cc(-c4ccc(C(=O)N5CC(N(C)C)C5)cc4)c3c2)cc(C)c1N1CCN(C2CCN(C)CC2)CC1
IC50 [1]: 4.8 nM

COc1cc2c(cc1Nc1ncc(Cl)c(Nc3ccccc3P(C)(C)=O)n1)CN(C)CCC2
IC50 [2]: 100 nM

CCc1c(C)[nH]c2nc(C(=O)N(C)C)c(N)cc12
Ki [7]: 15 nM

COc1cccc(F)c1-c1ncc2[nH]nc(-c3ccc(N4CCN(C)CC4)cc3)c2n1
Ki [6]: ≤ 100 nM

CN1CCN(c2ccc3[nH]c(-c4c(N)c5ccsc5[nH]c4=O)nc3c2)CC1
IC50 [17]: ≤ 50 nM
IC50 [18]: ≤ 500 nM
IC50 [19]: 50 nM

COc1cc2c(cc1Nc1ncc(Cl)c(Nc3ccccc3P(C)(C)=O)n1)CN(C)CC2
IC50 [2]: < 5 nM
IC50 [22]: 0.334 nM
IC50 [23]: 100 nM
